Data as given in patent publication US20260241012A1, “1,8-NAPHTHYRIDIN-2-ONE HETEROBIFUNCTIONAL BCL6 DEGRADERS” (Treeline Biosciences, Inc., priority 2022, published 2026).

Target: T1, N-terminal HiBiT tagged BCL6 (Homo sapiens, UniProt P41182)
T1 construct: expressed in transfected cells; host or cells: HT1080 (ATCC CCL-121), stably transduced with lentivirus pLV-UBC-N-HiBiT-BCL6-PGK-puro
Assay: HiBiT based degradation assay
Format: cell-based
Conditions: HT1080 cells expressing N-terminal HiBiT tagged BCL6, 5 hours of incubation; for Ymin (5 hr): BCL6 degradation normalized with DMSO control; for DC50: four-parameter logistic model, read-out: EC50 (5 hr)
Method in brief: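 Degradation measured by luminescence from the Nano-Glo HiBiT lytic reagent (15 min, room temperature), normalized to DMSO controls and fitted to a four-parameter curve.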

Row | Ymin (5 hr) | DC50 | Compound
1 | ++++ (Ymin < 30%) | < 10 nM | CNC(=O)COc1cc2cc(Nc3nc(N4CC[C@@H](CNc5ccc6c(C7CCC(=O)NC7=O)nn(C)c6c5)C4)ncc3Cl)cnc2n(C)c1=O (stereo partly drawn) [Compound 123b, 2-((6-((5-chloro-2-((3S)-3-(((3-(2,6-dioxopiperidin-3-yl)-1-methyl-1H-indazol-6-yl)amino)methyl)pyrrolidin-1-yl)pyrimidin-4-yl)amino)-1-methyl-2-oxo-1,2-dihydro-1,8-naphthyridin-3-yl)oxy)-N-methylacetamide]
2 | ++++ (Ymin < 30%) | < 10 nM | CNC(=O)COc1cc2cc(Nc3nc(N4CCC(CN5CCN(c6cccc7c(C8CCC(=O)NC8=O)nn(C)c67)CC5)CC4)ncc3Cl)cnc2n(C)c1=O (stereo not shown) [Compound 132, 2-((6-((5-chloro-2-(4-((4-(3-(2,6-dioxopiperidin-3-yl)-1-methyl-1H-indazol-7-yl)piperazin-1-yl)methyl)piperidin-1-yl)pyrimidin-4-yl)amino)-1-methyl-2-oxo-1,2-dihydro-1,8-naphthyridin-3-yl)oxy)-N-methylacetamide]
3 | ++++ (Ymin < 30%) | < 10 nM | CNC(=O)COc1cc2cc(Nc3nc(N4CCC(CN5CCN(c6ccc7c(C8CCC(=O)NC8=O)nn(C)c7c6)CC5)CC4)ncc3Cl)cnc2n(C)c1=O (stereo not shown) [Compound 133, 2-((6-((5-chloro-2-(4-((4-(3-(2,6-dioxopiperidin-3-yl)-1-methyl-1H-indazol-6-yl)piperazin-1-yl)methyl)piperidin-1-yl)pyrimidin-4-yl)amino)-1-methyl-2-oxo-1,2-dihydro-1,8-naphthyridin-3-yl)oxy)-N-methylacetamide]
4 | +++ (30% ≤ Ymin < 50%) | < 10 nM | CNC(=O)COc1cc2cc(Nc3nc(N4CCN(CC5CCN(c6ccc7c(C8CCC(=O)NC8=O)nn(C)c7c6)CC5)CC4)ncc3F)cnc2n(C)c1=O (stereo not shown) [Compound 134, 2-((6-((2-(4-((1-(3-(2,6-dioxopiperidin-3-yl)-1-methyl-1H-indazol-6-yl)piperidin-4-yl)methyl)piperazin-1-yl)-5-fluoropyrimidin-4-yl)amino)-1-methyl-2-oxo-1,2-dihydro-1,8-naphthyridin-3-yl)oxy)-N-methylacetamide]
5 | ++++ (Ymin < 30%) | < 10 nM | CNC(=O)COc1cc2cc(Nc3nc(N4CCN(CC5CCN(c6cccc7c(C8CCC(=O)NC8=O)nn(C)c67)CC5)CC4)ncc3F)cnc2n(C)c1=O (stereo not shown) [Compound 135, 2-((6-((2-(4-((1-(3-(2,6-dioxopiperidin-3-yl)-1-methyl-1H-indazol-7-yl)piperidin-4-yl)methyl)piperazin-1-yl)-5-fluoropyrimidin-4-yl)amino)-1-methyl-2-oxo-1,2-dihydro-1,8-naphthyridin-3-yl)oxy)-N-methylacetamide]
6 | ++++ (Ymin < 30%) | < 10 nM | CNC(=O)COc1cc2cc(Nc3nc(N4C[C@@H]5[C@@H](CN6CCN(c7cccc8c(C9CCC(=O)NC9=O)nn(C)c78)CC6)[C@@H]5C4)ncc3Cl)cnc2n(C)c1=O (stereo partly drawn) [Compound 136a, 2-((6-((5-chloro-2-((1R,5S,6s)-6-((4-(3-(2,6-dioxopiperidin-3-yl)-1-methyl-1H-indazol-7-yl)piperazin-1-yl)methyl)-3-azabicyclo[3.1.0]hexan-3-yl)pyrimidin-4-yl)amino)-1-methyl-2-oxo-1,2-dihydro-1,8-naphthyridin-3-yl)oxy)-N-methylacetamide]
7 | ++++ (Ymin < 30%) | < 10 nM | CNC(=O)COc1cc2cc(Nc3nc(N4CC5(CCC(Nc6cccc7c(C8CCC(=O)NC8=O)nn(C)c67)CC5)C4)ncc3Cl)cnc2n(C)c1=O (stereo not shown) [Compound 137, 2-((6-((5-chloro-2-(7-((3-(2,6-dioxopiperidin-3-yl)-1-methyl-1H-indazol-7-yl)amino)-2-azaspiro[3.5]nonan-2-yl)pyrimidin-4-yl)amino)-1-methyl-2-oxo-1,2-dihydro-1,8-naphthyridin-3-yl)oxy)-N-methylacetamide]
8 | ++++ (Ymin < 30%) | < 10 nM | CNC(=O)COc1cc2cc(Nc3nc(N4CC5(CCC(Nc6ccc7c(C8CCC(=O)NC8=O)nn(C)c7c6)CC5)C4)ncc3Cl)cnc2n(C)c1=O (stereo not shown) [Compound 138, 2-((6-((5-chloro-2-(7-((3-(2,6-dioxopiperidin-3-yl)-1-methyl-1H-indazol-6-yl)amino)-2-azaspiro[3.5]nonan-2-yl)pyrimidin-4-yl)amino)-1-methyl-2-oxo-1,2-dihydro-1,8-naphthyridin-3-yl)oxy)-N-methylacetamide]
9 | +++ (30% ≤ Ymin < 50%) | 100 to 1000 nM | CNC(=O)COc1cc2cc(Nc3nc(N4CCC(CC5CCN(c6cccc7c(C8CCC(=O)NC8=O)nn(C)c67)CC5)CC4)ncc3Cl)cnc2n(C)c1=O (stereo not shown) [Compound 139, 2-((6-((5-chloro-2-(4-((1-(3-(2,6-dioxopiperidin-3-yl)-1-methyl-1H-indazol-7-yl)piperidin-4-yl)methyl)piperidin-1-yl)pyrimidin-4-yl)amino)-1-methyl-2-oxo-1,2-dihydro-1,8-naphthyridin-3-yl)oxy)-N-methylacetamide]
10 | +++ (30% ≤ Ymin < 50%) | < 10 nM | CNC(=O)COc1cc2cc(Nc3nc(N4CCC(CC5CCN(c6ccc7c(C8CCC(=O)NC8=O)nn(C)c7c6)CC5)CC4)ncc3Cl)cnc2n(C)c1=O (stereo not shown) [Compound 140, 2-((6-((5-chloro-2-(4-((1-(3-(2,6-dioxopiperidin-3-yl)-1-methyl-1H-indazol-6-yl)piperidin-4-yl)methyl)piperidin-1-yl)pyrimidin-4-yl)amino)-1-methyl-2-oxo-1,2-dihydro-1,8-naphthyridin-3-yl)oxy)-N-methylacetamide]
11 | +++ (30% ≤ Ymin < 50%) | 10 to 100 nM | CNC(=O)COc1cc2cc(Nc3nc(N4CCN(CC5CCN(c6cccc7c(C8CCC(=O)NC8=O)nn(C)c67)CC5)[C@@H](C(F)(F)F)C4)ncc3Cl)cnc2n(C)c1=O (stereo partly drawn) [Compound 141a, 2-((6-((5-chloro-2-((3R)-4-((1-(3-(2,6-dioxopiperidin-3-yl)-1-methyl-1H-indazol-7-yl)piperidin-4-yl)methyl)-3-(trifluoromethyl)piperazin-1-yl)pyrimidin-4-yl)amino)-1-methyl-2-oxo-1,2-dihydro-1,8-naphthyridin-3-yl)oxy)-N-methylacetamide]
12 | +++ (30% ≤ Ymin < 50%) | < 10 nM | CNC(=O)COc1cc2cc(Nc3nc(N4CC5(CCC(Oc6cccc7c(C8CCC(=O)NC8=O)nn(C)c67)CC5)C4)ncc3Cl)cnc2n(C)c1=O (stereo not shown) [Compound 142, 2-((6-((5-chloro-2-(7-((3-(2,6-dioxopiperidin-3-yl)-1-methyl-1H-indazol-7-yl)oxy)-2-azaspiro[3.5]nonan-2-yl)pyrimidin-4-yl)amino)-1-methyl-2-oxo-1,2-dihydro-1,8-naphthyridin-3-yl)oxy)-N-methylacetamide]
13 | ++++ (Ymin < 30%) | < 10 nM | CNC(=O)COc1cc2cc(Nc3nc(N4CC5(CCC(Oc6ccc7c(C8CCC(=O)NC8=O)nn(C)c7c6)CC5)C4)ncc3Cl)cnc2n(C)c1=O (stereo not shown) [Compound 144, 2-((6-((5-chloro-2-(7-((3-(2,6-dioxopiperidin-3-yl)-1-methyl-1H-indazol-6-yl)oxy)-2-azaspiro[3.5]nonan-2-yl)pyrimidin-4-yl)amino)-1-methyl-2-oxo-1,2-dihydro-1,8-naphthyridin-3-yl)oxy)-N-methylacetamide]
14 | ++++ (Ymin < 30%) | < 10 nM | CCn1c(=O)c(OCC(=O)NC)cc2cc(Nc3nc(N4CCN(CC5CCN(c6cccc7c(C8CCC(=O)NC8=O)nn(C)c67)CC5)CC4)ncc3Cl)cnc21 (stereo not shown) [Compound 145, 2-((6-((5-chloro-2-(4-((1-(3-(2,6-dioxopiperidin-3-yl)-1-methyl-1H-indazol-7-yl)piperidin-4-yl)methyl)piperazin-1-yl)pyrimidin-4-yl)amino)-1-ethyl-2-oxo-1,2-dihydro-1,8-naphthyridin-3-yl)oxy)-N-methylacetamide]
15 | ++++ (Ymin < 30%) | 10 to 100 nM | CNC(=O)COc1cc2cc(Nc3nc(N4CCN(CC5CCN(c6cccc7c(C8CCC(=O)NC8=O)nn(C)c67)CC5)[C@H](CO)C4)ncc3Cl)cnc2n(C(C)C)c1=O (stereo partly drawn) [Compound 146a, 2-((6-((5-chloro-2-((3S)-4-((1-(3-(2,6-dioxopiperidin-3-yl)-1-methyl-1H-indazol-7-yl)piperidin-4-yl)methyl)-3-(hydroxymethyl)piperazin-1-yl)pyrimidin-4-yl)amino)-1-isopropyl-2-oxo-1,2-dihydro-1,8-naphthyridin-3-yl)oxy)-N-methylacetamide]
16 | ++++ (Ymin < 30%) | 10 to 100 nM | CNC(=O)COc1cc2cc(Nc3nc(N4CCN(CC5CCN(c6cccc7c(C8CCC(=O)NC8=O)nn(C)c67)CC5)[C@@H](CO)C4)ncc3Cl)cnc2n(C(C)C)c1=O (stereo partly drawn) [Compound 146b, 2-((6-((5-chloro-2-((3R)-4-((1-(3-(2,6-dioxopiperidin-3-yl)-1-methyl-1H-indazol-7-yl)piperidin-4-yl)methyl)-3-(hydroxymethyl)piperazin-1-yl)pyrimidin-4-yl)amino)-1-isopropyl-2-oxo-1,2-dihydro-1,8-naphthyridin-3-yl)oxy)-N-methylacetamide]

Row | Compound | Ymin (5 hr) | DC50
17 | CNC(=O)COc1cc2cc(Nc3nc(N4CCC(CN5C6CCC5CC(c5cccc7c(C8CCC(=O)NC8=O)nn(C)c57)C6)CC4)ncc3Cl)cnc2n(C)c1=O [Compound 143, 2-((6-((5-chloro-2-(4-(((1R,3s,5S)-3-(3-(2,6-dioxopiperidin-3-yl)-1-methyl-1H-indazol-7-yl)-8-azabicyclo[3.2.1]octan-8-yl)methyl)piperidin-1-yl)pyrimidin-4-yl)amino)-1-methyl-2-oxo-1,2-dihydro-1,8-naphthyridin-3-yl)oxy)-N-methylacetamide] | ++++ (Ymin < 30%) | < 10 nM
